The record followed here is US20220370416A1, “COMPOUNDS AND METHODS FOR TARGETED DEGRADATION OF KRAS” (Arvinas Operations, Inc., priority 2020, published 2022).

Structures are written as SMILES.

Experiment [1] deals with T1, KRAS^G12D (Homo sapiens, UniProt P01116, G13D).
T1 construct: KRAS degradation was examined in HCT 116 cells, which harbor a heterozygous KRAS^G13D mutation; endogenous in cells; host or cells: HCT116
In words: KRAS^G12D degradation in HCT116 cells (specificity). The experiment is classed as cell-based. The conditions noted are these: HCT116 cells (FIG. 3B).

The target in experiment [2] is KRAS^G12C (Homo sapiens, UniProt P01116, G12C). In words: KRAS^G12C degradation by immunoblot in NCI-H23 cells. It counts as cell-based. Further details: MRTX849-VHL bifunctional compounds engage and degrade endogenous KRAS^G12C in NCI-H2030 cells; endogenous in cells; host or cells: NCI-H2030, NCI-H358, MIA PaCa-2, SW1573, NCI-H23. The procedure: NCI-H2030 (CRL-5914), MIA PaCa-2 (CRL-1420), NCI-H23 (CRL-5800), NCI-H358 (CRL-5807), and HCT-116 (CCL-247) cells were obtained from ATCC, expanded immediately, and frozen down. Vials were thawed and used within 20 passages. SW1573 cells were a gift from Arvinas and were handled in the same manner. NCI-H2030, NCI-H23, and NCI-H358 were cultured in RPMI (ATCC30-2001) supplemented with 10% FBS (Biological Industries; cat. no. S1480) and 1% Penicillin-Streptomycin (ThermoFisher; cat. no. 15140122). HCT-116 cells were maintained in high glucose DMEM (ThermoFisher; cat. no. 11965084) supplemented as above. MIA PaCa-2 cells were cultured in high glucose DMEM supplemented with 10% FBS, 2.5% horse serum (ThermoFisher; cat. no. 26050-088; lot 2109875), and 1% Penicillin-Streptomycin. SW1573 cells were maintained in DMEM/F12 Nutrient Mix with GlutaMAX supplement (ThermoFisher; cat. no. 10565018) with 10% FBS and 1% Penicillin-Streptomycin added. DPBS (ThermoFisher; cat. no. 14190250) was used to wash cells and 0.25% Trypsin-EDTA (ThermoFisher; cat. no. […]) was used to detach cells for passaging. […] The VHL ligand was generously provided by Arvinas.
Between 2.5×10^5 and 6.0×10^5 cells were seeded into 6-well plates (Corning; cat. no. 353046). The next day, media was removed and cells were treated with 2.5 μM LC-2 for 1, 2, 4, 8, 12, or 24 hours. […] For 24-hour time course experiments, cells were treated at the indicated times and concurrently lysed in RIPA buffer supplemented as described previously. For longer time course experiments and time courses in which cells were treated with LC-2 or LC-2 Epimer, cells were concurrently treated with either compound, then lysed by scraping in RIPA buffer at the indicated time points.
Between 2.5×10^5 and 5.0×10^5 cells were seeded into 6-well plates. The next day cells were pretreated with DMSO, 500 μM or 1 mM VHL ligand, 1 μM epoxomicin, 1 μM […], or 100 nM […] bafilomycin A1 for 1 hour. Media was then removed and cells were treated with DMSO, 2.5 μM LC-2 plus DMSO, 2.5 μM LC-2 Epimer plus DMSO, or co-treated with 2.5 μM LC-2 and the corresponding competitor/inhibitor. H2030 cells were treated for 4 hours and H23 cells were treated for 24 hours, after which cells were lysed by scraping in RIPA buffer supplemented as described previously.
Cell lysates were clarified at 21000×g for 15 mins at 4° C. Protein levels were quantified using a 50:1 mixture of bicinchoninic acid solution (Millipore Sigma; cat. no. B9643) and 4% (w/v) copper(II) sulfate solution (Millipore Sigma; cat. no. C2284) incubated at 37° C. for 30 mins. Absorbance values at 560 nm were read on an EnVision 2101 Multilabel Reader (PerkinElmer). Proteins were separated using 26 well Criterion TGX precast 4-15% (cat. no. 5671085) or 8-16% (cat. no. 5671105) gradient midi gels. After separation, proteins were transferred to nitrocellulose or PVDF membranes at 76 V for 2 hours at 4° C. Blots were then blocked in 5% milk in tris-buffered saline with Tween-20 (TBST; 20 mM Tris, 150 mM NaCl, 0.02% Tween-20). After blocking, blots were incubated in primary antibody overnight (12-18 hours) at 4° C. or for 2 hours at room temperature with mild agitation at the manufacturer's indicated dilution in either 5% milk or 5% BSA in TBST. Blots were then washed thrice with TBST for 5 mins at room temperature. After washing, blots were incubated with 1:5,000-1:10,000 of donkey anti-rabbit (GE Life Sciences; NA934) or sheep anti-mouse (GE Life Sciences; NA931) secondary antibody diluted in 5% milk for 1 hour at room temperature with mild agitation. Blots were again washed thrice with TBST for 5 mins. Chemiluminescent signal was generated using Amersham ECL Prime Western Blotting Detection Reagant (GE Life Sciences; cat. no. RPN2232) or SuperSignal West Femto Maximum Sensitivity Substrate (ThermoFisher; cat. no. 34095). Images were obtained using a Bio-Rad ChemiDoc Imager.

One may read the Dmax as the greatest extent of degradation seen. A lower Dmax goes with a partial loss of target. Broadly, the DC50 is the midpoint of the concentration-degradation curve. Read a high DC50 as a less potent degrader.

As to `C=C(F)C(=O)N1CCN(c2nc(OC[C@@H]3CCCN3CCCOCCC(=O)N[C@H](C(=O)N3C[C@H](O)C[C@H]3C(=O)NCc3ccc(-c4scnc4C)cc3)C(C)(C)C)nc3c2CCN(c2cccc4cccc(Cl)c24)C3)C[C@@H]1CC#N` [LC-2, (2S,4R)-1-((S)-2-(3-(3-((S)-2-(((7-(8-chloronaphthalen-1-yl)-4-((S)-3-(cyanomethyl)-4-(2-fluoroacryloyl)piperazin-1-yl)-5,6,7,8-tetrahydropyrido[3,4-d]pyrimidin-2-yl)oxy)methyl)pyrrolidin-1-yl)propoxy)propanamido)-3,3-dimethylbutanoyl)-4-hydroxy-N-(4-(4-methylthiazol-5-yl)benzyl)pyrrolidine-2-carboxamide], the “degradation of KRAS^G12D” value in experiment [1] is on record as “does not degrade KRAS^G12D”. This molecule also showed a Dmax in experiment [2] (NCI-H23) of over 90%. Further, the “KRAS, two-way ANOVA significance vs DMSO” value in experiment [2] (NCI-H23, 0.25 μM, FIG. 9B) was “* (* p < 0.05)”; in experiment [2] (NCI-H23, 2.5 μM, 6 hours, FIG. 10B), “** (** p < 0.01)”; in experiment [2] (NCI-H23, 2.5 μM, 24 hours, FIG. 10B), “**** (**** p < 0.001)”; in experiment [2] (NCI-H23, 10 μM, FIG. 9B), “N.S”. In experiment [2] (NCI-H23, 2.5 μM), the “duration of KRAS degradation” value is “sustained up to 72 hours”. For the same molecule, the “time at which KRAS^G12C began to rebound” value in experiment [2] (NCI-H23, 2.5 μM) stood at 72 h. In addition, in experiment [2] (NCI-H23, 2.5 μM, 6, 24, 48, 72 hours), the “time to maximal KRAS degradation” value is at most 24 h. For the same molecule, the DC50 in experiment [2] (NCI-H23, heterozygous KRAS^G12C) was 0.25 ± 0.08 µM. The same molecule displayed a KRAS degradation in experiment [2] (NCI-H23 cells, heterozygous) of over 50%.
